The source of these data is US20080188481A1 (priority 2002, published 2008).

Molecules are shown by their SMILES.

The test has as its system HIV-1 single-round infectious reporter virus. Description: Single-round infectious HIV-1 luciferase reporter virus infection of HeLa CD4 cells (antiviral EC50). The format is cell-based. The conditions noted are these: Human immunodeficiency virus 1, HeLa, 72 h, read-out: EC50 Group from Table 1. The protocol:
• Virus production—Human embryonic Kidney cell line, 293T, was propagated in Dulbecco's Modified Eagle Medium (Invitrogen, Carlsbad, Calif.) containing 10% fetal Bovine serum (FBS, Sigma, St. Louis, Mo.). • Virus infection—Human epithelial cell line, HeLa, expressing the HIV-1 receptor CD4 was propagated in Dulbecco's Modified Eagle Medium (Invitrogen, Carlsbad, Calif.) containing 10% fetal Bovine serum (FBS, Sigma, St. Louis, Mo.) and supplemented with 0.2 mg/mL Geneticin (Invitrogen, Carlsbad, Calif.). Virus-Single-round infectious reporter virus was produced by co-transfecting human embryonic Kidney 293 cells with an HIV-1 envelope DNA expression vector and a proviral cDNA containing an envelope deletion mutation and the luciferase reporter gene inserted in place of HIV-1 nef sequences (Chen et al, Ref. 41). Transfections were performed using lipofectAMINE PLUS reagent as described by the manufacturer (Invitrogen, Carlsbad, Calif.).
• 1. HeLa CD4 cells were plated in 96 well plates at a cell density of 1×10^4 cells per well in 100 μl Dulbecco's Modified Eagle Medium containing 10% fetal Bovine serum and incubated overnight. • 2. Compound was added in a 2 μl dimethylsulfoxide solution, so that the final assay concentration would be ≦10 μM. • 3. 100 μl of single-round infectious reporter virus in Dulbecco's Modified Eagle Medium was then added to the plated cells and compound at an approximate multiplicity of infection (MOI) of 0.01, resulting in a final volume of 200 μl per well. • 4. Virally-infected cells were incubated at 37 degrees Celsius, in a CO2 incubator, and harvested 72 h after infection. • 5. Viral infection was monitored by measuring luciferase expression from viral DNA in the infected cells using a luciferase reporter gene assay kit, as described by the manufacturer (Roche Molecular Biochemicals, Indianapolis, Ind.). Infected cell supernatants were removed and 50 μl of lysis buffer was added per well. After 15 minutes, 50 μl of freshly-reconstituted luciferase assay reagent was added per well. Luciferase activity was then quantified by measuring luminescence using a Wallac microbeta scintillation counter. • 6. The percent inhibition for each compound was calculated by quantifying the level of luciferase expression in cells infected in the presence of each compound as a percentage of that observed for cells infected in the absence of compound and subtracting such a determined value from 100. • 7. An EC50 provides a method for comparing the antiviral potency of the compounds of this invention. The effective concentration for fifty percent inhibition (EC50) was calculated with the Microsoft Excel Xlfit curve fitting software. For each compound, curves were generated from percent inhibition calculated at 10 different concentrations by using a four paramenter logistic model (model 205). Table 1 is the key for the data in Table 2.
In general, EC50 refers to the concentration needed to bring the measured effect to its halfway point. Regarding `N#CC(=C1CCN(C(=O)C(=O)c2c[nH]c3c(-n4nccn4)ccnc23)CC1)c1ccccc1` [Example 105, {1-[2-Oxo-2-(7-[1,2,3]triazol-2-yl-1H-pyrrolo[3,2-b]pyridin-3-yl)-acetyl]-piperidin-4-ylidene}-phenyl-acetonitrile], the EC50 is below 1000 nM.

In the case of `O=C(C(=O)N1CCC(=C(Br)c2ccccc2)CC1)c1c[nH]c2c(Cl)ccnc12` [Example 107, 1-[4-(Bromo-phenyl-methylene)-piperidin-1-yl]-2-(7-chloro-1H-pyrrolo[3,2-b]pyridin-3-yl)-ethane-1,2-dione], the EC50 was below 1000 nM.

In the case of `COc1cnc(-n2cnc(C)n2)c2[nH]cc(C(=O)C(=O)N3CCC(=C(c4ccccc4)c4cnn(C)c4)CC3)c12` [Example 141, 1-[4-(1-Phenyl-1-(1-methylpyrazol-4-yl)-methylene)-piperidin-1-yl]-2-(4-methoxy-7-(3-methyl-1,2,4-triazol-1-yl)-6-azaindol-3-yl)-ethane-1,2-dione], the concentration giving a half-maximal response (EC50) is below 1000 nM.

As to `COc1cccc(C(=C2CCN(C(=O)C(=O)c3c[nH]c4c(OC)ncc(OC)c34)CC2)c2ccccc2)c1` [Example 58], the 50% effective concentration (EC50) is below 1000 nM.

Turning to `COc1cnc(-n2ccnn2)c2[nH]cc(C(=O)C(=O)N3CCC(=C(c4ccccc4)c4nnco4)CC3)c12` [Example 132, 1-[4-(1-Phenyl-1-(1,3,4-oxadiazol-2-yl)-methylene)-piperidin-1-yl]-2-[4-methoxy-7-(1,2,3-triazol-1-yl)-6-azaindol-3-yl]-ethane-1,2-dione], the EC50 is below 1000 nM.

Take `COc1ncc(OC)c2c(C(=O)C(=O)N3CCC(=C(c4ccccc4)c4ccccc4)CC3)c[nH]c12` [Example 57]: the EC50 is below 1000 nM.

As to `COc1ncc(OC)c2c(C(=O)C(=O)N3CCC(=C(c4ccccc4)c4cccc(F)c4)CC3)c[nH]c12` [Example 67], the EC50 is below 1000 nM.

Turning to `C=C(C)c1nnc(C(=C2CCN(C(=O)C(=O)c3c[nH]c4c(-n5cnc(C)n5)ncc(OC)c34)CC2)c2ccccc2)o1` [Example 130, 1-[4-(1-Phenyl-1-(5-isopropenyl-1,3,4-oxadiazol-2-yl)-methylene)-piperidin-1-yl]-2-[4-methoxy-7-(3-methyl-1,2,4-triazol-1-yl)-6-azaindol-3-yl]-ethane-1,2-dione], the EC50 is below 1000 nM.

Consider `COc1ncc(OC)c2c(C(=O)C(=O)N3CCC(=C(C#N)c4csc5ccccc45)CC3)c[nH]c12` [Example 128, 1-[4-(1-Cyano-1-benzothien-3-yl-methylene)-piperidin-1-yl]-2-(4,7-dimethoxy-6-azaindol-3-yl)-ethane-1,2-dione], for which the EC50 is below 1000 nM.

As for `COc1cnc(-c2cnccn2)c2[nH]cc(C(=O)C(=O)N3CCC(=C(c4ccccc4)c4nccs4)CC3)c12` [Example 90], the EC50 was below 1000 nM.

Turning to `COc1ncc(OC)c2c(C(=O)C(=O)N3CCC(=C(C#N)c4nc5ccccc5[nH]4)CC3)c[nH]c12` [Example 23], the EC50 was below 1000 nM.

Turning to `O=C(C(=O)N1CCC(=Cc2ccccc2)CC1)c1c[nH]c2c(-c3ncon3)ccc(F)c12` [Example 6], the EC50 is below 1000 nM.

For the molecule `COc1cnc(-n2cnc(C)n2)c2[nH]cc(C(=O)C(=O)N3CCC(=C(c4ccccc4)c4nnc(C5CC5)o4)CC3)c12` [Example 82, 1-[4-(1-Phenyl-1-(5-cyclopropyl-1,3,4-oxadiazol-2-yl)-methylene)-piperidin-1-yl]-2-[4-methoxy-7-(3-methyl-1,2,4-triazol-1-yl)-6-azaindol-3-yl]-ethane-1,2-dione], the EC50 is below 1000 nM.

For `C#CC(=C1CCN(C(=O)C(=O)c2c[nH]c3c(OC)ncc(OC)c23)CC1)c1ccccc1` [Example 113, 1-[4-(1-Phenyl-1-ethynyl-methylene)-piperidin-1-yl]-2-(4,7-dimethoxy-6-azaindol-3-yl)-ethane-1,2-dione], the concentration for a half-maximal effect (EC50) is below 1000 nM.

In the case of `COc1cnc(-c2cnccn2)c2[nH]cc(C(=O)C(=O)N3CCC(=C(c4ccccc4)c4nnc(C)o4)CC3)c12` [Example 72, 1-[4-(1-Phenyl-1-(5-methyl-1,3,4-oxadiazol-2-yl)-methylene)-piperidin-1-yl]-2-(4-methoxy-7-pyrazinyl-6-azaindol-3-yl)-ethane-1,2-dione], the concentration giving a half-maximal response (EC50) was below 1000 nM.

`COc1ncc(OC)c2c(C(=O)C(=O)N3CCC(=C(c4ccccc4)c4cccc([N+](=O)[O-])c4)CC3)c[nH]c12` [Example 66]: the EC50 is below 1000 nM.

With `COCC#CC(=C1CCN(C(=O)C(=O)c2c[nH]c3c(OC)ncc(OC)c23)CC1)c1ccccc1` [Example 117, 1-[4-(1-Phenyl-1-(2-methoxymethylethyn-1-yl)-methylene)-piperidin-1-yl]-2-(4,7-dimethoxy-6-azaindol-3-yl)-ethane-1,2-dione], the EC50 was below 1000 nM.

With `COc1ncc(OC)c2c(C(=O)C(=O)N3CCC(=C(C#CC(C)C)c4ccccc4)CC3)c[nH]c12` [Example 114, 1-[4-(1-Phenyl-1-(2-isopropylethyn-1-yl)-methylene)-piperidin-1-yl]-2-(4,7-dimethoxy-6-azaindol-3-yl)-ethane-1,2-dione], the concentration for a half-maximal effect (EC50) was below 1000 nM.

As to `COc1ncc(OC)c2c(C(=O)C(=O)N3CCC(=C(C#CCO)c4ccccc4)CC3)c[nH]c12` [Example 116, 1-[4-(1-Phenyl-1-(2-hydroxymethylethyn-1-yl)-methylene)-piperidin-1-yl]-2-(4,7-dimethoxy-6-azaindol-3-yl)-ethane-1,2-dione], the EC50 was below 1000 nM.

With `COc1ncc(OC)c2c(C(=O)C(=O)N3CCC(=C(c4ccccc4)c4ccccn4)CC3)c[nH]c12` [Example 50, 1-[4-(1-Phenyl-1-(pyridin-2-yl)-methylene)-piperidin-1-yl]-2-(4,7-dimethoxy-6-azaindol-3-yl)-ethane-1,2-dione], the half-maximal effective concentration (EC50) is below 1000 nM.

As for `O=C(C(=O)N1CCC(=C(c2ccccc2)c2cc(F)cc(F)c2)CC1)c1c[nH]c2c(Cl)ccnc12` [Example 109, 1-(7-Chloro-1H-pyrrolo[3,2-b]pyridin-3-yl)-2-{4-[(3,5-difluoro-phenyl)-phenyl-methylene]-piperidin-1-yl}-ethane-1,2-dione], the EC50 is below 1000 nM.

Consider `COc1cnc(-n2ccc(C)n2)c2[nH]cc(C(=O)C(=O)N3CCC(=C(c4ccccc4)c4ccc(F)cc4)CC3)c12` [Example 97], for which the EC50 was below 1000 nM.

With `COc1cnc(-n2ccnn2)c2[nH]cc(C(=O)C(=O)N3CCC(=C(c4ccccc4)c4nnc(O)o4)CC3)c12` [Example 77, 1-[4-(1-Phenyl-1-(5-hydroxy-1,3,4-oxadiazol-2-yl)-methylene)-piperidin-1-yl]-2-[4-methoxy-7-(1,2,3-triazol-1-yl)-6-azaindol-3-yl]-ethane-1,2-dione], the EC50 was below 1000 nM.

As to `COc1cnc(-n2ccc(C)n2)c2[nH]cc(C(=O)C(=O)N3CCC(=C(c4ccccc4)c4nnc(C)o4)CC3)c12` [Example 99], the EC50 was below 1000 nM.

As for `COc1cnc(-n2cnc(C)n2)c2[nH]cc(C(=O)C(=O)N3CCC(=C(c4ccccc4)c4nnc(C)o4)CC3)c12` [Example 80, 1-[4-(1-Phenyl-1-(5-methyl-1,3,4-oxadiazol-2-yl)-methylene)-piperidin-1-yl]-2-[4-methoxy-7-(3-methyl-1,2,4-triazol-1-yl)-6-azaindol-3-yl]-ethane-1,2-dione], the EC50 is below 1000 nM.

For the molecule `COc1cnc(-c2cnccn2)c2[nH]cc(C(=O)C(=O)N3CCC(=C(c4ccccc4)c4csc(C)n4)CC3)c12` [Example 91], the 50% effective concentration (EC50) is below 1000 nM.

As for `COc1cnc(-c2cnccn2)c2[nH]cc(C(=O)C(=O)N3CCC(=C(c4ccccc4)c4cccc(F)c4)CC3)c12` [Example 94], the EC50 is below 1000 nM.

For `COc1cnc(-n2cc(C)nn2)c2[nH]cc(C(=O)C(=O)N3CCC(=C(c4ccccc4)c4cc(C)n[nH]4)CC3)c12` [Example 137, 1-[4-(1-Phenyl-1-(3-methylpyrazol-5-yl)-methylene)-piperidin-1-yl]-2-(4-methoxy-7-(4-methyl-1,2,3-triazol-1-yl)-6-azaindol-3-yl)-ethane-1,2-dione], the EC50 is below 1000 nM.

With `COc1ncc(OC)c2c(C(=O)C(=O)N3CCC(=C(Cl)c4ccccc4)CC3)c[nH]c12` [Example 5], the EC50 was below 1000 nM.

Take `COc1cnc(-n2cncn2)c2[nH]cc(C(=O)C(=O)N3CCC(=C(c4ccccc4)c4nnc(C)o4)CC3)c12` [Example 79, 1-[4-(1-Phenyl-1-(5-methyl-1,3,4-oxadiazol-2-yl)-methylene)-piperidin-1-yl]-2-[4-methoxy-7-(1,2,4-triazol-1-yl)-6-azaindol-3-yl]-ethane-1,2-dione]: the EC50 is below 1000 nM.
